Legend:
printed heart = assay: Fluid pressure in ventricular-like chamber of the printed heart (FIG. 11A); assay type: cell-based; conditions: versus spontaneous mechanical activity of the same chamber
Source text: FIG. 11A is a graph of pressure dynamics of an example printed heart using bioink described herein. […] The relatively flat line is the system baseline without contraction. Other clinically-important, physiologically complex mechanical parameters can also be measured. FIG. 11B is an optical map of an example printed heart using bioink described herein.

[1] = tested on: differentiated hiPSCs in the printed heart; assay: Calcium traces of the printed heart, first experiment (FIG. 9); assay type: cell-based, human; conditions: complex printed heart (FIG. 9)
hChaMPs [2] = assay: Contractility video analysis of hChaMPs; assay type: cell-based; conditions: Homo sapiens; at least 3 different areas across 2 hChaMPs (FIG. 38); read-out: EC50, beat rate by contractility
Source text: Beating videos of hChaMPs were obtained at 4× on an Axiovert CFL 40 microscope at 8.7 frames per second. Beating rates (contraction, relaxation, and beats per minute) were obtained using an open source automated video analysis algorithm^4 with a macroblock size of 100×100 pixels and a maximum movement detection of 50 pixels to accommodate the robust movement of the tissue. For generation of a heat map of contractility over an entire hChaMP, a macroscale video was used with the macroblock size set to 25×25 pixels in the video analysis algorithm with a maximum movement detection of 20 pixels due to the lower magnification.

hChaMPs [3] = assay: Calcium transients in hChaMPs (Fluo-4 AM), drug response; assay type: cell-based, human
Method: Calcium movement in hChaMPs was recorded after recovery from lactate treatment using a DMi8 fluorescence microscope (Leica, Wetzlar, Germany). hChaMPs were first cultured with 5 μM Fluo-4 acetoxymethyl ester for 30 min at 37° C. and then washed with Tyrode's salt solution for another 30 min at 37° C. After that, the plates with hChaMPs were moved onto the microscope stage and covered with a heating plate to maintain the temperature at 37° C. Fluo-4 AM intensity was recorded at a frame rate of 6.90 Hz with 30 ms exposure time. The acquired data was processed by Fiji and a custom-written script in MATLAB (MathWorks). To generate the calcium traces, background signals of nonactive regions were subtracted from fluorescence signals of beating sites and then normalized against the baseline intensity. The effects of ionotropic drugs on calcium activity of hChaMPs were also analyzed by incubating Fluo-4 AM-treated hChaMPs with 1 μM Isoproterenol or 0.5 μM Verapamil for 10 min at 37° C. prior to being imaged. Calcium transients are presented as normalized intensity (f/f0) over time, along with the average peak amplitude and the average interspike interval.

hChaMP [4] = assay: Pressure-volume catheter measurement in hChaMP; assay type: cell-based, human; conditions: 1 μM versus spontaneous contraction, 5 contraction cycles (FIGS. 44A, 44B)
Method: Pulse pressure and stroke volume of hChaMPs were measured using an ADV500 PV system with a PV catheter. The hChaMP was transferred to a 10 cm dish with 20 mL RPMI plus B-27 Supplement with insulin on a heating plate pre-heated to 37° C. to ensure the working temperature was always above 30° C. The PV catheter was inserted and positioned close to the apex of hChaMP to obtain clear pressure and volume signals, and the vessel through which the catheter was inserted was tied off to stabilize the construct. Isoproterenol was given by adding 20 μL of 1 mM solution into the dish to achieve the final concentration of 1 μM. […] The volume reading was further calibrated by conducting a dye dilution test. Briefly, acellular hChaMPs were first monitored by the ADV500 PV system while being compressed and released by 1.45 mm, 2.9 mm, and 4.35 mm from the side. […] Next, the hChaMP was compressed and released by 1.45 mm depth from the side for 3 times, and the hChaMP was then removed and the bulk medium was collected and examined by a Cytation 3 microplate reader at 524 nm for absorbance from which the displaced volume could be determined. […]
The acquired data was post-processed and analyzed by a custom-written script in MATLAB. […] To examine the stroke work generated by the hChaMPs, 5 random contraction cycles were used for creating PV loops and the stroke work was determined by the area in the loops.

hChaMP [5] = assay: Optical mapping of voltage in hChaMP (di-4-ANEPPS); assay type: cell-based, human; conditions: 1 μM (FIG. 35B)
Method: The hChaMP was immersed in a 10 μM solution of the voltage-sensitive dye di-4-ANEPPS in Krebs-Ringer Buffer for 20 min. After this incubation, half of the dye solution was removed and replaced with RPMI+B27 with insulin media. After 2-5 min stabilization, hChaMPs were excited with a two diode-pumped, continuous-excitation green laser (532 nm, 1 W), and fluorescence intensity was recorded for 15 seconds using 14-bit, 80×80-pixel resolution cameras at 500 frames per second. In some hChaMPs, pacing was provided at 1 and 2 Hz via a bipolar electrode and optical mapping movies were recorded during pacing. For drug testing, hChaMPs were treated with 1 μM of isoproterenol and optical mapping movies were recorded with and without pacing.
Optical action potential duration (APD) was measured at 80% repolarization, and two-dimensional (2D) APD maps were constructed to reveal the spatial distribution of APD on the hChaMP surface. Local conduction velocity (CV) was calculated as described previously. Specifically, the distributions of activation times (AT), measured at (dV/dt)max, for the spatial regions of 3×3 pixels were fitted with the plane, and gradients of activation times gx and gy were calculated for each plane along the x- and y-axes, respectively. The magnitude of the local CV was calculated for each pixel as (gx^2+gy^2)^−1/2. Mean values for CV were calculated for the visible surface. […]

With Cc1ccc2c(c1)C(=O)C1(O)CCN(c3ccccc3)C1=N2 (stereo not drawn) [blebbistatin] as the molecule, how does the chamber pressure amplitude (printed heart) read?
Its chamber pressure amplitude is “inhibited pressure amplitudes”.

Cn1c(=O)c2c(ncn2C)n(C)c1=O [caffeine] was tested. Which “beating rate with respect to control” value [1] did it give?
The value was “accelerate”.

Which results are given for CC(C)NCC(O)c1ccc(O)c(O)c1 (stereo not drawn) [isoproterenol]?
EC50 (hChaMPs [2]): 9 nM; calcium handling frequency (hChaMPs [3]; 1 μM, 10 min at 37° C.): increased in frequency; EC50 (hChaMPs [3]; Homo sapiens, 5 different areas across two hChaMPs (FIG. 31), read-out: EC50, beat rate by calcium transient activity): 9 nM; stroke work (hChaMP [4]): reduced; response of electrical activity to drug stimulation (hChaMP [5]): responded in a dramatic and predicted fashion

Which “beating rate with respect to control” value [1] does the source give for COc1ccc(CCN(C)CCCC(C#N)(c2ccc(OC)c(OC)c2)C(C)C)cc1OC (stereo not drawn) [verapamil] here?
The value was “slow”.

What about the calcium handling amplitude (hChaMPs [3]; 0.5 μM, 10 min at 37° C.) of the same molecule?
The calcium handling amplitude was “decreased in amplitude”.
